Laboratory results published in paper PMC10587436, “A bacterial quorum sensing signal is a potent inhibitor of de novo pyrimidine biosynthesis in the globally abundant Emiliania huxleyi” (Frontiers in Microbiology, 2023).

Tests used:
[1] = target: E. huxleyi dihydroorotate dehydrogenase (EhDHODH)
[2] = target: T1, E. huxleyi dihydroorotate dehydrogenase (EhDHODH); assay: DCIP colorimetric DHODH activity assay, Morrison tight-binding fit; IC50 […]; format: biochemical, Emiliania huxleyi
T1 construct: ΔN20EhDHODH (first 20 residues truncated, start at residue 21; N-terminal eight-residue histidine tag)

| IC50 [1] [µM] | Structure (SMILES) | Ki [2] [µM] |
| --- | --- | --- |
| 43 ± 11 | Cc1c(-c2ccc(-c3ccccc3F)cc2)nc2ccc(F)cc2c1C(=O)O [brequinar] |  |
|  | CCCCCCCc1cc(=O)c2ccccc2[nH]1 [HHQ] | 0.0023 ± 0.0007 |
